Here are results for 1 molecule from PubChem BioAssay AID1462 (Emory University Molecular Libraries Screening Center, 2008).

The assay has as its target Protein GrpE (Escherichia coli (strain K12)) (UniProt P09372). The assay can be described thus: inhibition of DnaK/DnaJ/GrpE luciferase refolding – biochemical, luminescence, E. coli K12, dose response (AID 1462). The conditions noted are these: DnaK/DnaJ/GrpE denatured luciferase refolding.

As a reminder, the IC50 is the concentration at which inhibition is half-maximal.

Values joined by “and” are separate entries in the source; they are usually repeats but may differ in a detail not shown here. Identical values can stand only once.

Protein GrpE (Escherichia coli (strain K12)), sequence (P09372 whole entry, looked up): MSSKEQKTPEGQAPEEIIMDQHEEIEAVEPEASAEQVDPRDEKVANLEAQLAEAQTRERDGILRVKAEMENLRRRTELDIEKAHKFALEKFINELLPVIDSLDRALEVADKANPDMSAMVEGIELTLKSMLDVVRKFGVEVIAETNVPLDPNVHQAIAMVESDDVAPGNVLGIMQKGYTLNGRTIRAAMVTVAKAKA

For the molecule `Nc1c(S(=O)(=O)O)cc(Nc2ccc(Nc3nc(Cl)nc(Nc4ccc(S(=O)(=O)O)cc4)n3)c(S(=O)(=O)O)c2)c2c1C(=O)c1ccccc1C2=O`, the IC50 was 1660 nM and 551 nM.
